In US12383544B2, “Methods for the treatment of polycystic kidney disease” (Galapagos NV, priority 2019, dated 2025):
Read-outs that look alike come from different tables or passages of the source.

Key:
wild type mouse CFTR = molecular target: T1, wild type mouse CFTR (Mus musculus, UniProt P26361); assay: YFP halide (YHA) assay in mIMCD3_wt cells, Cpd 1 with Metformin; format: cell-based
T1 construct: expressed in transfected cells; host or cells: mouse mIMCD3_wt cells (ATCC CRL-2123)
Experimental: To evaluate the ability of a test compound combination to inhibit wild type CFTR using tubular kidney cells, a YFP halide assay using mIMCD3_wt cells (ATCC® CRL-2123) transfected with wild type mouse CFTR was developed (Galietta, Jayaraman, and Verkman 2001). Cells were incubated during 24 h with a dose range of compound 1 or a combination of a dose range of compound 1 with increasing dose of Metformin Immediately before measurement, forskolin together with a dose range of compound 1 combined or not with increasing dose of Metformin was added the wild type CFTR expressing mIMCD3 cells in order to fully activate the available CFTR at the plasma membrane. Inhibition of the channel by test compounds was plotted to obtain IC50s.
Mouse mIMCD3_wt cells were transfected with 20 ng of wild type CFTR and 80 ng of plasmid encoding YFP (H148Q/I152L/F47L) using jetPEI (Polyplus transfection). Directly after transfection, cells were seeded in black 96-well plates coated with Poly-D-lysine at a density of 40,000 cells per well. The next day, cells were treated with compounds for 24 h. After this incubation period, cells were washed twice with DPBS with Ca^2+ and Mg^2+. Subsequently, cells were treated with 10 μM forskolin and the desired concentrations of compounds in a volume of 40 μl and incubated at room temperature for 15 min, a time point optimized in previous experiments resulting in a good window (positive control/negative control>2) and signal to background ratio. YFP fluorescence was measured using an EnVision plate reader (PerkinElmer). […] The excitation wavelength was 485 nm and the emission wavelength 530 nm.
Concentration-response experiments were fitted using a 4 parameter hill function of the form Response=Bottom+(Top−Bottom)/(1+(EC50/concentration)^HillSlope)) to determine EC50 values.

wild type human CFTR = molecular target: T2, wild type human CFTR (Homo sapiens, UniProt P13569); assay: Yellow Fluorescent Protein (YFP) halide assay in wild type CFTR (HEK293 cells); format: cell-based; conditions: HEK293 cells transfected with wild type human CFTR; 24 h incubation; 10 μM forskolin; read-out: EC50 of inhibition of WT CFTR
T2 construct: expressed in transfected cells; host or cells: HEK293
Experimental: To evaluate the ability of a test compound to inhibit wild type CFTR, a YFP halide assay using HEK293 cells transfected with wild type human CFTR was developed. (Galietta, Jayaraman, and Verkman 2001) Cells were incubated during 24 h with a dose range of test compound and the resulting wild type CFTR activity was plotted to obtain the EC50.
Test compounds were also added together with forskolin to wild type CFTR expressing cells in order to fully active the available CFTR at the plasma membrane and determine accurately the inhibition of the channel activity.
HEK293 cells were transfected with 10 to 80 ng of wild type CFTR and 20 ng of plasmid encoding YFP (H148Q/I152L/F47L) using jetPEI (Polyplus transfection). Directly after transfection, cells were seeded in black 96-well plates coated with Poly-D-lysine at a density of 70,000 cells per well. The next day, cells were treated with corrector(s) for 24 h. After this incubation period, cells were washed twice with DPBS with Ca^2+ and Mg^2+. Subsequently, cells were treated with 10 μM forskolin and the desired concentration of potentiator in a volume of 40 μl and incubated at room temperature for 10 min, a time point optimized in previous experiments resulting in a good window (positive control/negative control >2) and signal to background ratio. YFP fluorescence was measured using an EnVision plate reader (PerkinElmer). […]

T1 sequence (P26361 whole entry): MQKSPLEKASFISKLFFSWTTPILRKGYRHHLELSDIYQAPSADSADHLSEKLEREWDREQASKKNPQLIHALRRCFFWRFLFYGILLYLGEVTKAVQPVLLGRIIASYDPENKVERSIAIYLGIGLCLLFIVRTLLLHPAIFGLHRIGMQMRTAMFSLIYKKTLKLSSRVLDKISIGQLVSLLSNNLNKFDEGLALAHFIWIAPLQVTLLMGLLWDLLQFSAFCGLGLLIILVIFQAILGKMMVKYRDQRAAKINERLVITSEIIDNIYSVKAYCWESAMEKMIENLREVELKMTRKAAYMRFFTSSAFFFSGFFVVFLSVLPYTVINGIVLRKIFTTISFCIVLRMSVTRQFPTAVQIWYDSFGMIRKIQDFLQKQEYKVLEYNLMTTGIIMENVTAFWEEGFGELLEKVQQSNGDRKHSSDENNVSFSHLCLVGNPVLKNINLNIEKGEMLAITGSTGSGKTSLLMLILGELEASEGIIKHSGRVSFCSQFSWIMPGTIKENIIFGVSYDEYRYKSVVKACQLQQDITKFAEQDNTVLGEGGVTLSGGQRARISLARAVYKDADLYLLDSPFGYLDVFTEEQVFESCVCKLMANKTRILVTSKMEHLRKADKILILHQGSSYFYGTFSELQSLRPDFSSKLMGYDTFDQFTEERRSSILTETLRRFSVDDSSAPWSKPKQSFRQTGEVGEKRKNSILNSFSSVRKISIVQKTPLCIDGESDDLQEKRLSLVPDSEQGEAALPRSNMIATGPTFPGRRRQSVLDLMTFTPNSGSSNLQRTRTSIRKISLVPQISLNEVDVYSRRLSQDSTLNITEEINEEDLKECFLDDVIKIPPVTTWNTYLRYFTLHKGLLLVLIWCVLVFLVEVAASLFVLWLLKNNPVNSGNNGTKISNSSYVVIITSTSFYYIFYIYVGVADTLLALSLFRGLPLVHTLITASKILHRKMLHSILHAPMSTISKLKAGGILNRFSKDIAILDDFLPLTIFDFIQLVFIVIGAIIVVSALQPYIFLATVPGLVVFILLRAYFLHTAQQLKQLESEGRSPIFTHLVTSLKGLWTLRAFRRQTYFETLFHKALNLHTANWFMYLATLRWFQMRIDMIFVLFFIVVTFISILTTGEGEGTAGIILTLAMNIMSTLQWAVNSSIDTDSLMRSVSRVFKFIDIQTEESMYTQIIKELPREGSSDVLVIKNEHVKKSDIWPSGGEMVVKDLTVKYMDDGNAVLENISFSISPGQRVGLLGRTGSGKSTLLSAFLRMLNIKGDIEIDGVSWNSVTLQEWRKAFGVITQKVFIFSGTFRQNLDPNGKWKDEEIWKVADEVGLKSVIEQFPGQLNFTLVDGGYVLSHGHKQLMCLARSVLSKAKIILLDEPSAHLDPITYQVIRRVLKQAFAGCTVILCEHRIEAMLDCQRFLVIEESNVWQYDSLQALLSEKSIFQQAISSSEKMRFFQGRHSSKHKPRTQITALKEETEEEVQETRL
T2 sequence (P13569 whole entry): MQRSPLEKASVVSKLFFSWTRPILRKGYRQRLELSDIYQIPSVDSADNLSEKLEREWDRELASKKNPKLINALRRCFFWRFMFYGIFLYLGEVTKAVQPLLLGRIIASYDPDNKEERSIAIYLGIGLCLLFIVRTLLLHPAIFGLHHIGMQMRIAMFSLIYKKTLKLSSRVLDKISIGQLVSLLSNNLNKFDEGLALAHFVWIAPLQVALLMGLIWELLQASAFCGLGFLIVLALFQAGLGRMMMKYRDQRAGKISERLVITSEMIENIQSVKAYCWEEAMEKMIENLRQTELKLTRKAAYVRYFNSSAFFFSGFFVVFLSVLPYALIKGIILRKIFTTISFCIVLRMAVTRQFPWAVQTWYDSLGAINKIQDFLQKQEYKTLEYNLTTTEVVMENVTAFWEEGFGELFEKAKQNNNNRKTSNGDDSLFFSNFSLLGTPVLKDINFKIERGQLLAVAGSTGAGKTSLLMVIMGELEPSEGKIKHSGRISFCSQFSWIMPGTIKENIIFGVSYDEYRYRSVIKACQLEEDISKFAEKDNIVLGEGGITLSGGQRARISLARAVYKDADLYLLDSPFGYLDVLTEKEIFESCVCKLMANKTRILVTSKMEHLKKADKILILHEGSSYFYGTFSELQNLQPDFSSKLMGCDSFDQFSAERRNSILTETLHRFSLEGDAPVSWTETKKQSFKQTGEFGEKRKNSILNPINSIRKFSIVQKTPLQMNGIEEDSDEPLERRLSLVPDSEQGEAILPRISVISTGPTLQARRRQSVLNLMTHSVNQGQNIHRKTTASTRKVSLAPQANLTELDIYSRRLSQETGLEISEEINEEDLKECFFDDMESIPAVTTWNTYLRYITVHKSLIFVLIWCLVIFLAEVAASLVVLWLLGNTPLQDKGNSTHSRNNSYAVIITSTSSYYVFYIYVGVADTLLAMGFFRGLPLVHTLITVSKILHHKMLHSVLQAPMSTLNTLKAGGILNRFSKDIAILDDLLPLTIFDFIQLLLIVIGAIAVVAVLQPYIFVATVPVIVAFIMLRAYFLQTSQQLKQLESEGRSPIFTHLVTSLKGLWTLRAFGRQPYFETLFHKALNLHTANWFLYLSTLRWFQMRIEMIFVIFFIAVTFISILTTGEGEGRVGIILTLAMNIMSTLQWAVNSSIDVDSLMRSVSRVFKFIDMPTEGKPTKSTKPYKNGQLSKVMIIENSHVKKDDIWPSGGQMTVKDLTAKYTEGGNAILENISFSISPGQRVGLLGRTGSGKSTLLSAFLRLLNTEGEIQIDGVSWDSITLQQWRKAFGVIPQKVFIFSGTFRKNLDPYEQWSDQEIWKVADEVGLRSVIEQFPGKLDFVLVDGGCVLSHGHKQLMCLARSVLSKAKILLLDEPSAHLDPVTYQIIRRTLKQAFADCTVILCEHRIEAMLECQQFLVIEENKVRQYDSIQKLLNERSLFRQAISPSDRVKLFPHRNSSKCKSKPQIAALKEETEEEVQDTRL

EC50 (wild type mouse CFTR; Compound 1 alone at 30 μM, mouse mIMCD3_wt cells, read-out: EC50 of inhibition of mouse CFTR activity): 3120 nM | IC50 (wild type mouse CFTR; [Metformin] 0 μM, mIMCD3_wt cells, read-out: IC50): 3120 nM | IC50 (wild type mouse CFTR; [Metformin] 20 μM, mIMCD3_wt cells, read-out: IC50): 3670 nM | IC50 (wild type mouse CFTR; [Metformin] 40 μM, mIMCD3_wt cells, read-out: IC50): 2320 nM | IC50 (wild type mouse CFTR; [Metformin] 80 μM, mIMCD3_wt cells, read-out: IC50): 3790 nM | IC50 (wild type mouse CFTR; [Metformin] 160 μM, mIMCD3_wt cells, read-out: IC50): 2910 nM | IC50 (wild type mouse CFTR; [Metformin] 310 μM, mIMCD3_wt cells, read-out: IC50): 1910 nM | IC50 (wild type mouse CFTR; [Metformin] 630 μM, mIMCD3_wt cells, read-out: IC50): 1770 nM | IC50 (wild type mouse CFTR; [Metformin] 1250 μM, mIMCD3_wt cells, read-out: IC50): 1820 nM | IC50 (wild type mouse CFTR; [Metformin] 2500 μM, mIMCD3_wt cells, read-out: IC50): 830 nM | IC50 (wild type mouse CFTR; combined with 5 μM of Metformin, mouse mIMCD3 cells, read-out: IC50 of inhibition of mouse CFTR): 920 nM | EC50 (wild type human CFTR): 728 nM
Structure (SMILES): COC1CCN(C2CCN(c3cc(C(=O)NS(=O)(=O)N(C)C)nc4c3c(C3CCC3)nn4-c3ccc(F)cc3)CC2)CC1 [Cpd 1]
